In the first series the test system is MT-4 cells. As to the kind of experiment: Cytotoxicity test in MT-4 cells (MTT method). Type of series: cell-based.
Conditions: not given
As for the experimental part: In order to look into the HIV-1 inhibition effects of the compound of the present invention, an in vitro test for HIV-1 inhibition effects was carried out as follows according to a known method (H. Tanaka et al., J. Med. Chem., 1991, 34, 349). MT-4 cells were used as host cells, and the degree of the compound of the present invention inhibiting the cytotoxicity of the virus-infected MT-4 cells was investigated.
First, MT-4 cells were diffused at a concentration of 1×10^4 cell/well to a culture medium, and HIV-1 was inoculated so that the concentration was 500 TCI50 (concentration at which 50% of the cell is infected)/well. Immediately after the inoculation, the cell dispersion was transferred in 100 μL each to a flat microtiter plate in which the sample of the compound of the present invention was placed. The sample was incubated for approximately for 4 to 5 days at […], and the virus suppression effect was determined using an MTT method. In addition, the cytotoxicity was also determined by measuring the survivability of the experimentally virus-infected cells using an MTT method. As a comparative compound, azidothymidine (AZT) and raltegravir were used.
(In general: Tetrazolium dyes change colour on reduction, which living cells bring about.)
Regarding `Cc1nc2c(c(C)c(C)n2C)c(-c2ccc3c(c2Cl)CCCO3)c1[C@H](OC(C)(C)C)C(=O)O` [Example 72, (S)-2-(tert-butoxy)-2-((R)-4-(5-chlorochroman-6-yl)-1,2,3,6-tetramethyl-1H-pyrrolo[2,3-b]pyridin-5-yl)acetic acid], the “CC60 (μM) ** : concentration at 50% cell damage with respect to MT-4 cells” value was 16.18 µM.

Take `Cc1nc2c(c(C)c(C)n2C)c(-c2cc(F)c3c(c2C)CCCO3)c1[C@H](OC(C)(C)C)C(=O)O` [Example 75, (S)-2-(tert-butoxy)-2-((S)-4-(8-fluoro-5-methylchroman-6-yl)-1,2,3,6-tetramethyl-1H-pyrrolo[2,3-b]pyridin-5-yl)acetic acid]: the “CC60 (μM) ** : concentration at 50% cell damage with respect to MT-4 cells” value was 37.22 µM.

Still in this series, the particulars now being: human.
For `Cc1nc2c(c(C)c(C)n2Cc2cccnc2)c(-c2ccc(Cl)cc2)c1C(OC(C)(C)C)C(=O)O` (centres unmarked) [Example 12, 2-Tert-butoxy-2-(4-(4-chlorophenyl)-2,3,6-trimethyl-1-(pyridin-3-ylmethyl)-1H-pyrrolo[2,3-b]pyridin-5-yl)acetic acid], the “CC60 (μM) ** : concentration at 50% cell damage with respect to MT-4 cells” value is 56.14 µM.

On to `Cc1nc2c(c(C)c(C)n2CCF)c(-c2ccc(Cl)cc2)c1[C@H](OC(C)(C)C)C(=O)O` [Example 54, (S)-2-(Tert-butoxy)-2-(4-(4-chlorophenyl)-1-(2-fluoroethyl)-2,3,6-trimethyl-1H-pyrrolo[2,3-b]pyridin-5-yl)acetic acid], for which the “CC60 (μM) ** : concentration at 50% cell damage with respect to MT-4 cells” value is 18.82 µM.

Regarding `Cc1nc2c(c(C)c(C)n2Cc2cncnc2)c(-c2ccc(Cl)cc2)c1[C@H](OC(C)(C)C)C(=O)O` [Example 55, (S)-2-(Tert-butoxy)-2-(4-(4-chlorophenyl)-2,3,6-trimethyl-1-(pyrimidin-5-ylmethyl)-1H-pyrrolo[2,3-b]pyridin-5-yl)acetic acid], the “CC60 (μM) ** : concentration at 50% cell damage with respect to MT-4 cells” value was determined as 64.73 µM.

Consider `Cc1nc2c(c(C)c(C)n2Cc2cccs2)c(-c2ccc(Cl)cc2)c1[C@H](OC(C)(C)C)C(=O)O` [Example 42, (S)-2-(Tert-butoxy)-2-(4-(4-chlorophenyl)-2,3,6-trimethyl-1-(thiophen-2-ylmethyl)-1H-pyrrolo[2,3-b]pyridin-5-yl)acetic acid], for which the “CC60 (μM) ** : concentration at 50% cell damage with respect to MT-4 cells” value was found to be 20.54 µM.

`Cc1nc2c(c(C)c(C)n2CC#N)c(-c2ccc(Cl)cc2)c1C(OC(C)(C)C)C(=O)O` (centres unmarked) [Example 22, 2-Tert-butoxy-2-(4-(4-chlorophenyl)-1-cyanomethyl-2,3,6-trimethyl-1H-pyrrolo[2,3-b]pyridin-5-yl)acetic acid]: the “CC60 (μM) ** : concentration at 50% cell damage with respect to MT-4 cells” value came to 114.47 µM.

Take `C#CCn1c(C)c(C)c2c(-c3ccc(Cl)cc3)c(C(OC(C)(C)C)C(=O)O)c(C)nc21` (centres unmarked) [Example 20, 2-Tert-butoxy-2-(4-(4-chlorophenyl)-2,3,6-trimethyl-1-(prop-2-ynyl)-1H-pyrrolo[2,3-b]pyridin-5-yl)acetic acid]: the “CC60 (μM) ** : concentration at 50% cell damage with respect to MT-4 cells” value came to 18.77 µM.

As for `COc1ccc(Cn2c(C)c(C)c3c(-c4ccc(Cl)cc4)c(C(OC(C)(C)C)C(=O)O)c(C)nc32)cc1` (centres unmarked) [Example 9, 2-Tert-butoxy-2-(4-(4-chlorophenyl)-1-(4-methoxybenzyl)-2,3,6-trimethyl-1H-pyrrolo[2,3-b]pyridin-5-yl)acetic acid], the “CC60 (μM) ** : concentration at 50% cell damage with respect to MT-4 cells” value came to 18.04 µM.

As for `Cc1nc2c(c(C)c(C)n2CC(C)C)c(-c2ccc(Cl)cc2)c1C(OC(C)(C)C)C(=O)O` (centres unmarked) [Example 17, 2-Tert-butoxy-2-(4-(4-chlorophenyl)-1-isobutyl-2,3,6-trimethyl-1H-pyrrolo[2,3-b]pyridin-5-yl)acetic acid], the “CC60 (μM) ** : concentration at 50% cell damage with respect to MT-4 cells” value is 17.57 µM.

Take `Cc1nc2c(c(C)c(C)n2CC(=O)O)c(-c2ccc(Cl)cc2)c1[C@H](OC(C)(C)C)C(=O)O` [Example 57, (S)-2-(Tert-butoxy)-2-(1-carboxymethyl)-(4-(4-chlorophenyl)-2,3,6-trimethyl-1H-pyrrolo[2,3-b]pyridin-5-yl)acetic acid]: the “CC60 (μM) ** : concentration at 50% cell damage with respect to MT-4 cells” value was greater than 217.9 µM.

As for `Cc1nc2c(c(C)c(C)n2CC2CC2)c(-c2ccc(Cl)cc2)c1[C@H](OC(C)(C)C)C(=O)O` [Example 28, (S)-2-Tert-butoxy-2-(4-(4-chlorophenyl)-1-(cyclopropylmethyl)-2,3,6-trimethyl-1H-pyrrolo[2,3-b]pyridin-5-yl)acetic acid], the “CC60 (μM) ** : concentration at 50% cell damage with respect to MT-4 cells” value was 20.4 µM.

As for `Cc1nc2c(c(C)c(C)n2CCN2CCCC2)c(-c2ccc(Cl)cc2)c1[C@H](OC(C)(C)C)C(=O)O` [Example 71], the “CC60 (μM) ** : concentration at 50% cell damage with respect to MT-4 cells” value is 73.54 µM.

As to `CCn1c(C)c(C)c2c(-c3ccc(OC)cc3)c(C(OC(C)(C)C)C(=O)O)c(C)nc21` (centres unmarked) [Example 41, 2-(Tert-butoxy)-2-(1-ethyl-4-(4-methoxyphenyl)-2,3,6-trimethyl-1H-pyrrolo[2,3-b]pyridin-5-yl)acetic acid], the “CC60 (μM) ** : concentration at 50% cell damage with respect to MT-4 cells” value turned out to be 31.49 µM.

As to `Cc1nc2[nH]c(C)c(C)c2c(-c2ccc(Cl)cc2)c1C(OC(C)(C)C)C(=O)O` (centres unmarked) [Example 25, 2-Tert-butoxy-2-(4-(4-chlorophenyl)-2,3,6-trimethyl-1H-pyrrolo[2,3-b]pyridin-5-yl)acetic acid], the “CC60 (μM) ** : concentration at 50% cell damage with respect to MT-4 cells” value stood at 108 µM.

With `Cc1nc2c(c(C)c(C)n2Cc2ccncc2)c(-c2ccc(Cl)cc2)c1C(OC(C)(C)C)C(=O)O` (centres unmarked) [Example 10, 2-Tert-butoxy-2-(4-(4-chlorophenyl)-2,3,6-trimethyl-1-(pyridin-4-ylmethyl)-1H-pyrrolo[2,3-b]pyridin-5-yl)acetic acid], the “CC60 (μM) ** : concentration at 50% cell damage with respect to MT-4 cells” value was greater than 203 µM.

For `Cc1nc2c(c(C)c(C)n2Cc2ccccn2)c(-c2ccc(Cl)cc2)c1C(OC(C)(C)C)C(=O)O` (centres unmarked) [Example 13, 2-Tert-butoxy-2-(4-(4-chlorophenyl)-2,3,6-trimethyl-1-(pyridin-2-ylmethyl)-1H-pyrrolo[2,3-b]pyridin-5-yl)acetic acid], the “CC60 (μM) ** : concentration at 50% cell damage with respect to MT-4 cells” value is 85.91 µM.

On to `Cc1nc2c(c(C)c(C)n2Cc2ccco2)c(-c2ccc(Cl)cc2)c1[C@H](OC(C)(C)C)C(=O)O` [Example 44, (S)-2-(Tert-butoxy)-2-(4-(4-chlorophenyl)-1-(furan-2-ylmethyl)-2,3,6-trimethyl-1H-pyrrolo[2,3-b]pyridin-5-yl)acetic acid], for which the “CC60 (μM) ** : concentration at 50% cell damage with respect to MT-4 cells” value came to 18.06 µM.

Turning to `Cc1nc2c(c(C)c(C)n2Cc2cccc(Cl)c2)c(-c2ccc(Cl)cc2)c1C(OC(C)(C)C)C(=O)O` (centres unmarked) [Example 6, 2-Tert-butoxy-2-(1-(3-chlorobenzyl)-4-(4-chlorophenyl)-2,3,6-trimethyl-1H-pyrrolo[2,3-b]pyridin-5-yl)acetic acid], the “CC60 (μM) ** : concentration at 50% cell damage with respect to MT-4 cells” value was 9.74 µM.

Take `Cc1nc2c(c(C)c(C)n2Cc2nccs2)c(-c2ccc(Cl)cc2)c1[C@H](OC(C)(C)C)C(=O)O` [Example 64, (S)-2-(Tert-butoxy)-2-(4-(4-chlorophenyl)-2,3,6-trimethyl-1-(thiazol-2-ylmethyl)-1H-pyrrolo[2,3-b]pyridin-5-yl)acetic acid]: the “CC60 (μM) ** : concentration at 50% cell damage with respect to MT-4 cells” value stood at 48.57 µM.

Consider `Cc1nc2c(c(C)c(C)n2CC2CC2)c(-c2cc(F)c3c(c2C)CCCO3)c1[C@H](OC(C)(C)C)C(=O)O` [Example 76, (S)-2-(Tert-butoxy)-2-((R)-1-(cyclopropylmethyl)-4-((R)-8-fluoro-5-methylchroman-6-yl)-2,3,6-trimethyl-1H-pyrrolo[2,3-b]pyridin-5-yl)acetic acid], for which the “CC60 (μM) ** : concentration at 50% cell damage with respect to MT-4 cells” value is 13.94 µM.

For `Cc1nc2c(c(C)c(C)n2C)c(-c2ccc(Cl)cc2)c1C(OC(C)(C)C)C(=O)O` (centres unmarked) [Example 1, 2-Tert-butoxy-2-(4-(4-chlorophenyl)-1,2,3,6-tetramethyl-1H-pyrrolo[2,3-b]pyridin-5-yl)acetic acid], the “CC60 (μM) ** : concentration at 50% cell damage with respect to MT-4 cells” value turned out to be 25 µM.

As for `Cc1nc2c(c(C)c(C)n2CCC#N)c(-c2ccc(Cl)cc2)c1[C@@H](OC(C)(C)C)C(=O)O` [Example 31, (R)-2-tert-butoxy-2-(4-(4-chlorophenyl)-1-(2-cyanoethyl)-2,3,6-trimethyl-1H-pyrrolo[2,3-b]pyridin-5-yl)acetic acid], the “CC60 (μM) ** : concentration at 50% cell damage with respect to MT-4 cells” value worked out at 86.73 µM.

With `Cc1nc2c(c(C)c(C)n2CN2C(=O)c3ccccc3C2=O)c(-c2ccc(Cl)cc2)c1C(OC(C)(C)C)C(=O)O` (centres unmarked) [Example 19, 2-Tert-butoxy-2-(4-(4-chlorophenyl)-1-((1,3-dioxoisoindolin-2-yl)methyl)-2,3,6-trimethyl-1H-pyrrolo[2,3-b]pyridin-5-yl)acetic acid], the “CC60 (μM) ** : concentration at 50% cell damage with respect to MT-4 cells” value was greater than 179 µM.

As to `Cc1nc2c(c(C)c(C)n2CC2CCCC2)c(-c2ccc(Cl)cc2)c1[C@H](OC(C)(C)C)C(=O)O` [Example 49, (S)-2-(Tert-butoxy)-2-(4-(4-chlorophenyl)-1-(cyclopentylmethyl)-2,3,6-trimethyl-1H-pyrrolo[2,3-b]pyridin-5-yl)acetic acid], the “CC60 (μM) ** : concentration at 50% cell damage with respect to MT-4 cells” value turned out to be 15.3 µM.

As for `Cc1nc2c(c(C)c(C)n2CCC#N)c(-c2ccc(Cl)cc2)c1[C@H](OC(C)(C)C)C(=O)O` [Example 30, (S)-2-Tert-butoxy-2-(4-(4-chlorophenyl)-1-(2-cyanoethyl)-2,3,6-trimethyl-1H-pyrrolo[2,3-b]pyridin-5-yl)acetic acid], the “CC60 (μM) ** : concentration at 50% cell damage with respect to MT-4 cells” value stood at 30.86 µM.
